The values that follow come from US9789082B2, “Somatostatin receptor subtype 4 (SSTR4) agonists” (Centrexion Therapeutics Corporation, priority 2013, dated 2017).

Data set [1] can be described thus: Metabolic stability in pooled human liver microsomes (half-life). Format: in vitro ADME. The settings on record: 1 μM test compound; for half-life at 1 μM: pooled human liver microsomes, pH 7.6, 37° C., read-out: Half-life t1/2. The procedure:
The metabolic stability of the compounds according to the invention may be investigated as follows:
The metabolic degradation of the test compound is assayed at 37° C. with pooled human liver microsomes. The final incubation volume of 100 μl per time point contains TRIS buffer pH 7.6 at room temperature (0.1 M), magnesium chloride (5 mM), microsomal protein (1 mg/mL) and the test compound at a final concentration of 1 μM. Following a short preincubation period at 37° C., the reactions are initiated by addition of beta-nicotinamide adenine dinucleotide phosphate, reduced form (NADPH, 1 mM), and terminated by transferring an aliquot into solvent after different time points. After centrifugation (10000 g, 5 min), an aliquot of the supernatant is assayed by LC-MS/MS for the amount of parent compound. The half-life is determined by the slope of the semi-logarithmic plot of the concentration-time profile.
(In general: Liver microsomes are a subcellular fraction often used to study metabolism.)

In data set [2] the target is human Somatostatin 4 receptor (SSTR4) (Homo sapiens (Human), UniProt P31391). Briefly: cAMP assay with human somatostatin 4 receptor (hSSTR4 expressing H4 cells). Format: cell-based. The settings on record: cAMP assay, read-out: SSTR4 agonism EC50. How it is done: Camp Assay Method Description for cAMP Assay with Human Somatostatin 4 Receptor
Chain of human Somatostatin 4 receptor (SSTR4) (P31391 whole entry): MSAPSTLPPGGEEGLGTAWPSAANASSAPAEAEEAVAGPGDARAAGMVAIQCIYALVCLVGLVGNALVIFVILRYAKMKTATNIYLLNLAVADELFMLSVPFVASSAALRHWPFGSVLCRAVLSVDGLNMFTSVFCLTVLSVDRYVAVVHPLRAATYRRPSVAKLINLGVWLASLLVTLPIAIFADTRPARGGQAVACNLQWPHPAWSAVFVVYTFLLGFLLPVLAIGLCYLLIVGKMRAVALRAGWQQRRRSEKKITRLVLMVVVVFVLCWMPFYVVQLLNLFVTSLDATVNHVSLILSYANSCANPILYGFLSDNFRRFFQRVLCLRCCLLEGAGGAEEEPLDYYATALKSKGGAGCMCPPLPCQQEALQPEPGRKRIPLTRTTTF
The activation of the SSTR4 receptor (Gi coupled) causes an inhibition of intracellular cAMP after stimulation with Forskolin, which can be quantifiable by use of a suitable assay Kit and an adequate plate reader. This technique is used to characterize pharmacological effects of the SSTR4 receptor agonists by use of hSSTR4 expressing H4 cells.
Compounds are dissolved and diluted in DMSO. The final test solution contains 1% DMSO. […] Cells are centrifuged and suspended in assay buffer (incl. 1:100 diluted Alexa antibody).
For the assay 5 μl of a cell suspension (approximately 5000 cells/well)—incl. Alexa antibody (diluted 1:100) are added into a 384 well MTP microtitre plate excepting one row or column (depending on the plate layout), which is reserved for the standard curve. Then 2 μl of compound sample is added as concentration response curve (e.g. 1e-5 M to 6e-10 M), usually in triplicates. Each assay contains incubations with vehicle controls instead of compound as controls for non-inhibited cAMP generation (100% CTL; ‘high values’) and incubations with 1 μM Somatosatin as controls for full inhibition and background (0% CTL; […]). […] Then the plates are shaken briefly and incubated for 60 min at room temperature. After 60 min 10 μl of the detection mix is added into all wells followed by an additional incubation period of 1 h. The plates are read in a suitable plate reader.
From this ratio, cAMP concentrations are calculated from standard curve and the EC50 is estimated by least square curve fit program.
The EC50 values were obtained with the aid of the above described cAMP ASSAY.
(In general: Changes in cAMP serve as a functional read-out for many G protein-coupled receptors.)

Bounds are passed on as bounds.

What is called EC50 is the concentration giving half of the maximal effect. As to `CC(C)(COc1nnccc1C(F)(F)F)NC(=O)[C@H]1[C@@H]2CNC[C@@H]21` [Example 58], the half-life at 1 μM in data set [1] is above 2.17 h. The EC50 in data set [2] came out at 22 nM.
`Cc1ccccc1OCC(C)NC(=O)[C@H]1[C@@H]2CNC[C@@H]21.Cl` (stereo partly shown) [Example 59]: in data set [1], the half-life at 1 μM is above 2.17 h. For the same compound, the EC50 in data set [2] came out at 64.3 nM.
The like results for `Cl.Cn1nccc1OCC(C)(C)NC(=O)[C@H]1[C@@H]2CNC[C@@H]21` [Example 60] were, in that order, above 2.17 h and 76.9 nM.
Taken in the same sequence, the figures for `CC(C)(COc1ncccc1C1CC1)NC(=O)[C@H]1[C@@H]2CNC[C@@H]21` [Example 64] were above 2.17 h and 2 nM.
For `Cc1cc(C2CC2)ccc1OCC(C)(C)NC(=O)[C@H]1[C@@H]2CNC[C@@H]21` [Example 65], the “Half-life t1/2” value in data set [1] (37° C.) was above 2.17 h. Also, the EC50 in data set [2] turned out to be 29.8 nM.
As for `Cc1ccnnc1OCC(C)(C)NC(=O)[C@H]1[C@@H]2CNC[C@@H]21.Cl` [Example 67], the half-life at 1 μM in data set [1] was above 2.17 h. The EC50 in data set [2] came out at 66.3 nM.
Take `CC(C)(NC(=O)[C@H]1[C@@H]2CNC[C@@H]21)c1ncc2ccccn12.Cl` [Example 68]: the half-life at 1 μM in data set [1] was above 2.17 h. Further, the concentration giving a half-maximal response (EC50) in data set [2] was determined as 4.7 nM.
The like results for `CC(C)(COc1ccccc1C1CC1)NC(=O)[C@H]1[C@@H]2CNC[C@@H]21` [Example 70] were, in that order, above 2.17 h and 5.7 nM.
The like results for `Cc1ccccc1OCC(C)(C)NC(=O)[C@H]1[C@@H]2CN(C)C[C@@H]21.Cl` [Example 71] were, in that order, 2 h and 26.9 nM.
Taken in the same sequence, the figures for `Cn1nc(C(C)(C)NC(=O)[C@H]2[C@@H]3CNC[C@@H]32)c2c(F)cccc21` [Example 74] were 0.6 h and 1.6 nM.
As for `Cn1nc(C(C)(C)NC(=O)[C@H]2[C@@H]3CNC[C@@H]32)c2ccc(F)cc21` [Example 75], the half-life at 1 μM in data set [1] is above 2.17 h. Further, the EC50 in data set [2] worked out at 0.4 nM.
The like results for `Cn1nc(C(C)(C)NC(=O)[C@H]2[C@@H]3CNC[C@@H]32)c2cccc(C(F)(F)F)c21` [Example 76] were, in that order, above 2.17 h and 0.8 nM.
Taken in the same sequence, the figures for `Cc1ccc(C(C)(C)NC(=O)[C@H]2[C@@H]3CNC[C@@H]32)n2ccnc12` [Example 83] were above 2.17 h and 11 nM.
The like results for `CC(C)(NC(=O)[C@H]1[C@@H]2CNC[C@@H]21)c1cc2ccccn2c1` [Example 87] were, in that order, above 2.17 h and 22.9 nM.
For `Cc1cccc2c(C(C)(C)NC(=O)[C@H]3[C@@H]4CNC[C@@H]43)ncnc12` [Example 88], the half-life at 1 μM in data set [1] was above 2.17 h. In data set [2], the EC50 is 0.8 nM.
`CCn1nc(C(C)(C)NC(=O)[C@H]2[C@@H]3CNC[C@@H]32)c2ccccc21` [Example 95]: the half-life at 1 μM in data set [1] was above 2.17 h. In data set [2], the EC50 was 3.6 nM.
Taken in the same sequence, the figures for `CC(C)(NC(=O)[C@H]1[C@@H]2CNC[C@@H]21)c1noc2c(C(F)(F)F)cccc12` [Example 102] were above 2.17 h and 2.3 nM.
Taken in the same sequence, the figures for `Cn1nc(C(C)(C)NC(=O)[C@H]2[C@@H]3CNC[C@@H]32)c2cccc(F)c21` [Example 105] were above 2.17 h and 0.4 nM.
With `CC(C)(NC(=O)[C@H]1[C@@H]2CNC[C@@H]21)c1n[nH]c2c(F)cccc12` [Example 109], the half-life at 1 μM in data set [1] is above 2.17 h. Further, in data set [2], the half-maximal effective concentration (EC50) was found to be 0.3 nM.
The like results for `CC(NC(=O)[C@H]1[C@@H]2CNC[C@@H]21)c1nn(C)c2ccccc12` (stereo partly shown) [Example 111] were, in that order, above 2.17 h and 14.5 nM.
The like results for `CC(NC(=O)[C@H]1[C@@H]2CNC[C@@H]21)c1nn(C)c2c(Cl)cccc12` (stereo partly shown) [Example 114] were, in that order, above 2.17 h and 4.7 nM.
Taken in the same sequence, the figures for `CC(C)(NC(=O)[C@H]1[C@@H]2CNC[C@@H]21)c1nc(C2CC2)c2ccccn12.Cl` [Example 120] were above 2.17 h and 1.9 nM.
Regarding `Cc1cccn2c(C(C)(C)NC(=O)[C@H]3[C@@H]4CNC[C@@H]43)nc(C(F)(F)F)c12.Cl` [Example 129], the half-life at 1 μM in data set [1] is above 2.17 h. In data set [2], the EC50 was 6.8 nM.
On to `CC(C)(NC(=O)[C@H]1[C@@H]2CNC[C@@H]21)c1ncc2c(F)cccn12.Cl` [Example 133], for which, in data set [1], the half-life at 1 μM was above 2.17 h. Moreover, in data set [2], the EC50 was 7.1 nM.
Taken in the same sequence, the figures for `Cc1cccn2c(C3(NC(=O)[C@H]4[C@@H]5CNC[C@@H]54)CCC3)ncc12` [Example 137] were above 2.17 h and 0.8 nM.
The like results for `CC(C)(NC(=O)[C@H]1[C@@H]2CNC[C@@H]21)c1nc(C(F)(F)F)nc2ccccc12` [Example 139] were, in that order, above 2.17 h and 10.9 nM.
The like results for `COc1cccn2c(C(C)(C)NC(=O)[C@H]3[C@@H]4CNC[C@@H]43)ncc12` [Example 140] were, in that order, above 2.17 h and 0.6 nM.
Regarding `CC(C)(NC(=O)[C@H]1[C@@H]2CNC[C@@H]21)c1nc(C2CC2)nc2ccccc12` [Example 141], the half-life at 1 μM in data set [1] was above 2.17 h. For the same compound, the EC50 in data set [2] came to 3.3 nM.
The like results for `Cc1cccn2c(C(C)(C)NC(=O)[C@H]3[C@@H]4CNC[C@@H]43)nnc12` [Example 142] were, in that order, above 2.17 h and 4 nM.
For `CC(C)(NC(=O)[C@H]1[C@@H]2CNC[C@@H]21)c1ncc2c(Cl)cccn12` [Example 143], the half-life at 1 μM in data set [1] is above 2.17 h. Moreover, the EC50 in data set [2] was 0.3 nM.
Taken in the same sequence, the figures for `Cc1cccn2c(C3(NC(=O)[C@H]4[C@@H]5CNC[C@@H]54)CC3)ncc12` [Example 145] were above 2.17 h and 0.9 nM.
Taken in the same sequence, the figures for `CC(C)(NC(=O)[C@H]1[C@@H]2CNC[C@@H]21)c1ncc2c(C3CC3)cccn12` [Example 146] were above 2.17 h and 2.6 nM.
Taken in the same sequence, the figures for `CC(C)(NC(=O)[C@H]1[C@@H]2CNC[C@@H]21)c1nc(C2CC2)c2c(F)cccn12` [Example 149] were above 2.17 h and 1 nM.
Regarding `Cc1cccn2c(C(C)(C)NC(=O)[C@H]3[C@@H]4CNC[C@@H]43)cnc12` [Example 150], the half-life at 1 μM in data set [1] was above 2.17 h. For the same compound, the EC50 in data set [2] was 0.9 nM.
For `Cc1nc(C(C)(C)NC(=O)[C@H]2[C@@H]3CNC[C@@H]32)n2cccc(F)c12` [Example 151], in data set [1], the half-life at 1 μM is above 2.17 h. Besides, the concentration for a half-maximal effect (EC50) in data set [2] was 0.6 nM.
The like results for `CC(C)(NC(=O)[C@H]1[C@@H]2CNC[C@@H]21)c1ncnc2c(Cl)cccc12` [Example 156] were, in that order, above 2.17 h and 7.4 nM.
Taken in the same sequence, the figures for `Cc1cc(F)cn2c(C(C)(C)NC(=O)[C@H]3[C@@H]4CNC[C@@H]43)ncc12` [Example 158] were above 2.17 h and 0.8 nM.
The like results for `Cc1cccn2c([C@H](C)NC(=O)[C@H]3[C@@H]4CNC[C@@H]43)ncc12` [Example 159] were, in that order, above 2.17 h and 15.4 nM.
